Test results taken from patent US20080175903A1, “Treatment of anxiety with eszopiclone” (Sepracor Inc., priority 2006, published 2008).
Where two headings read alike, the source gives them in different places.

Experiments:
rhesus monkeys [1] = details: previously published in Rowlett et al., 2006; cited from earlier work
rhesus monkeys [2] = test: Rhesus monkey conflict procedure (suppressed and non-suppressed responding); assay type: in vivo; details: for ED50: Macaca mulatta, iv, rhesus monkeys; for Estimated anxiolytic dose / expected human oral dose: minimum recommended dose of diazepam 2 mg
Description: FIG. 3 is a plot of rates of non-suppressed and suppressed responding by rhesus monkeys trained in a conflict procedure. Monkeys were injected i.v. with cumulative doses of (S)-zopiclone. Data are mean±S.E.M. for N=4 monkeys. Points above “V” represent data following drug vehicle administration. Note that *P<0.05 vs. V (control). Experimental methodology was identical to that described by Rowlett J K et al. (2006).
“Conflict Procedure,” as used herein refers to the rhesus monkey conflict procedure reported by Rowlett et al. (Psychopharmacology (2006) 184:201-211). Antianxiety dosage determination in rhesus monkeys using the procedure set forth by Rowlett et al. is correlative with antianxiety dosages in humans. The conflict procedure is a method of determining the parameters correlating a clinically determinable effect of eszopiclone in rhesus monkeys with analogous effects in a human subject. The results of conflict procedures in rhesus monkeys are closely correlated with dosages of agents providing anxiolysis in humans. Accordingly, the conflict procedure is a method of determining whether a dosage of eszopiclone provides clinically determinable treatment or prophylaxis of anxiety in humans.
Conflict procedures in animals are used to study mechanisms underlying the anxiolytic effects of benzodiazepines (Rowlett J K et al., Psychopharmacology (2006) 184:201-211). […] The effects of each benzodiazepine in rhesus conflict procedure is to increase suppressed responding at doses lower than the doses that ultimately decrease rates of non-suppressed responding. This characteristic profile in the rhesus conflict procedure contrasts dramatically with the effects of non-benzodiazepine hypnotics zolpidem and zaleplon, and also contrasts to the effects of GABA-A ligands with subtype efficacies different from classical benzodiazepines, such as flumazenil and CL218,872 (Rowlett J K et al., 2006).
This correlation was used to estimate the therapeutic dose in humans for anxiolytic effects. The ED50 of the suppressed responding in FIG. 3 is 0.07 mg/kg i.v., indicating a 50% anxiolytic effect at that dose i.v. in the rhesus procedure. Using this ED50 in the regression analysis of Rowlett J K et al. (2006), an expected human oral dose of 0.9 mg is obtained. This dose is below the hypnotic doses (i.e., it is subsedative) used clinically in humans (1, 2, and 3 mg), further supporting the validity of the correspondence between the efficacy profiles of classical benzodiazepines and (S)-zopiclone.
The potencies of eszopiclone to alter suppressed and non-suppressed responding were estimated by calculating the dose that engendered 5% to 95% of the maximum effect (EDx, where x=5-95%). The EDx for suppressed responding was obtained by dividing rates of suppressed responding for individual monkeys by the average maximum increase in response rate (i.e., the peak effect) and multiplying the value by 100. Doses on the ascending limb of the dose-response function were used to calculate the EDx by log-linear regression analysis. The EDx for non-suppressed responding was obtained by dividing rates of non-suppressed responding for individual monkeys by the average maximum decrease in response rate (this corresponded to the highest dose tested) and multiplying by 100. The EDx values for non-suppressed responding were calculated by log-linear regression analysis. All potencies were expressed as the mean±SEM for n=4 monkeys.
A linear relationship between relative potency to induce clinical effects in humans and relative potency to increase suppressed responding or decrease non-suppressed responding in monkeys has been determined previously for 10 standard benzodiazepines (Rowlett et al., 2006). […]

[3] = target: T1, α1-containing GABAA receptors (human α1, β3, γ2L) (Homo sapiens, UniProt P14867+P18507); test: Potentiation of GABA evoked currents, recombinant GABA-A receptors in Xenopus oocytes, two-electrode voltage clamp; assay type: cell-based
T1 construct: expressed in transfected cells; host or cells: Xenopus oocytes (cDNA injected, alpha:beta:gamma 1:1:3)
Description: (§1) FIG. 2 is a plot showing the concentration-dependent potentiation of GABA evoked currents by (S)-zopiclone. For all experiments, human cDNA encoding each subunit was injected in oocytes in a stoichiometry of 1:1:3 (alpha, beta, gamma subunits). Approximately 24 hours later, GABA evoked currents (using a concentration of GABA equal to the EC10) were recorded from oocytes using a two-electrode voltage clamp on a robotic oocyte platform and a constant voltage of −80 mV. GABA was applied to the oocytes via a perfusion system for 20 seconds and then removed. An inward deflection of the current trace was recorded and subsequently compared to the responses resulting from applying the same concentration of GABA plus varying concentrations of the test compound ((S)-zopiclone). A doubling of the GABA evoked current is represented as a potentiation ratio of 1.0.
(§2) The GABA-A receptor is gated by GABA, and ligands at the benzodiazepine site potentiate GABA-evoked currents. It is well-established in the scientific literature that classical benzodiazepines potentiate GABA evoked chloride currents through GABA-A receptors. The efficacies of classical benzodiazepines can be described as “full modulators” referring to their ability to increase the chloride currents induced by sub-maximal GABA concentrations. The action of (S)-zopiclone on GABA-A receptors was evaluated by examining their effects on electrophysiological recordings in a recombinant expression system.
(§3) Recombinant GABA-A receptors were expressed in Xenopus oocytes by injecting cDNA encoding the human β3, γ2L, and each of α1, α2, α3, or α5 subunits in turn to assemble functional channels. Channel activity was measured using two-electrode voltage clamp in whole cell configuration on a robotic workstation. […] The potentiation ratio was then measured as the fold-increase in current generated by a (S)-zopiclone plus an EC10 of GABA, compared to the current generated by just the EC10 of GABA alone. These potentiation ratios were measured at a range of (S)-zopiclone concentrations to generate a subsequent concentration response curve at each of the subtypes using between 2 and 7 oocytes. […]
(§4) For all experiments, human cDNA encoding each subunit was injected in oocytes in a stoichiometry of 1:1:3 (alpha, beta, gamma subunits). Approximately 24 hours later, GABA evoked currents (using a concentration of GABA equal to the EC10) were recorded from oocytes using a two-electrode voltage clamp on a robotic oocyte platform and a constant voltage of −80 mV. […] An inward deflection of the current trace was recorded and subsequently compared to the responses resulting from applying the same concentration of GABA plus varying concentrations of the test compound [(S)-zopiclone]. […]

[4] = target: T2, α5-containing GABAA receptors (human α5, β3, γ2L) (Homo sapiens, UniProt P18507+P31644); test: as above; assay type: cell-based
T2 construct: expressed in transfected cells; host or cells: Xenopus oocytes (cDNA injected, alpha:beta:gamma 1:1:3)
Description: as §1, §2, §3, §4

[5] = target: T3, α2-containing GABAA receptors (human α2, β3, γ2L) (Homo sapiens, UniProt P18507+P47869); test: as above; assay type: cell-based
T3 construct: expressed in transfected cells; host or cells: Xenopus oocytes (cDNA injected, alpha:beta:gamma 1:1:3)
Description: as §1, §2, §3, §4

[6] = target: T4, α3-containing GABAA receptors (human α3, β3, γ2L) (Homo sapiens, UniProt P18507+P34903); test: as above; assay type: cell-based
T4 construct: expressed in transfected cells; host or cells: Xenopus oocytes (cDNA injected, alpha:beta:gamma 1:1:3)
Description: as §1, §2, §3, §4

[7] = system: healthy adult male human subjects; test: EEG study (quantitative wake EEG) of single doses of eszopiclone versus placebo; assay type: in vivo
Description: A study was conducted to evaluate the pharmacodynamic (quantitative wake electroencephalogram (qEEG) and auditory P300 (evoked potentials (EPs)) of four doses of eszopiclone, relative to placebo, in healthy adult male human subjects. The study was single-blind, placebo-controlled, ascending, single dose. Subjects received single doses of immediate release formulations that contained 0.3 mg of eszopiclone, 0.6 mg of eszopiclone, 0.9 mg of eszopiclone or 2.0 mg of eszopiclone.
Changes in beta EEG activity are interpreted as indicating an anxiolytic effect (Ansseau et al, Neuropsychobiology 1984, 12(4):255-9; Buchsbaum et al, Biol. Psychiatry, 1985, 20(8):832-42; Macher et al, Human psychopharmacology, 1990 (eds I Hindmarch and P D Stonier), Vol 3, 10-2; Mandema and Danhof, Clin Pharmacokinet, 1992, 23(3):191-215.
In this study, statistical EEG maps were obtained comparing EEG power values for each dose of eszopiclone versus placebo. […] The dose effect is further illustrated in the graphically depicted results of FIG. 4 which follows.
Classically, delta activity in pharmaco-EEG indicates a sedative effect of the drug under study. Delta EEG activity is clearly modified when the sedative drug effect has reached a high threshold.
Conclusions regarding a possible sedative effect or a trend to impair the subject's arousal should also include analyses of a drug's effects on alpha EEG activity, which reflect decreases in subject's arousal (pro sedative effect).

[8] = Clinical study of eszopiclone in healthy volunteers: plasma concentration-time profiles after oral administration; assay type: in vivo, human; details: post-dose
Description: FIG. 1 is a plot of mean (S)-zopiclone plasma concentration-time profiles following oral administration of (S)-zopiclone.
A clinical study of eszopiclone in healthy volunteers was performed using art-recognized methodology.

[9] = log10 of predicted potency relative to diazepam in humans
[10] = predicted potency relative to diazepam in humans
[11] = relative potency in the monkey conflict procedure

T3 sequence (P47869 29-451): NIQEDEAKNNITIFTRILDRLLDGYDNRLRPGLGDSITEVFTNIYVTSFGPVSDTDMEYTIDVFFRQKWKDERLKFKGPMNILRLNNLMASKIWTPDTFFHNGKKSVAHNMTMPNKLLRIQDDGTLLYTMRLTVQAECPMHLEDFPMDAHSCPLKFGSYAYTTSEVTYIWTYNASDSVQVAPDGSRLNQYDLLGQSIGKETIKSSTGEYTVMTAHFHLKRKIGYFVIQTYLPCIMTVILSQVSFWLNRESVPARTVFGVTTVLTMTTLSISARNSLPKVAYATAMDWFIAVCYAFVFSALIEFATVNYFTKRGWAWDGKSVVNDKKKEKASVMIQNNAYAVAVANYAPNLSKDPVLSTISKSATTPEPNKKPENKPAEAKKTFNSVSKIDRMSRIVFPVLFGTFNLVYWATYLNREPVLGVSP
T3 sequence (P28472 26-473 partner): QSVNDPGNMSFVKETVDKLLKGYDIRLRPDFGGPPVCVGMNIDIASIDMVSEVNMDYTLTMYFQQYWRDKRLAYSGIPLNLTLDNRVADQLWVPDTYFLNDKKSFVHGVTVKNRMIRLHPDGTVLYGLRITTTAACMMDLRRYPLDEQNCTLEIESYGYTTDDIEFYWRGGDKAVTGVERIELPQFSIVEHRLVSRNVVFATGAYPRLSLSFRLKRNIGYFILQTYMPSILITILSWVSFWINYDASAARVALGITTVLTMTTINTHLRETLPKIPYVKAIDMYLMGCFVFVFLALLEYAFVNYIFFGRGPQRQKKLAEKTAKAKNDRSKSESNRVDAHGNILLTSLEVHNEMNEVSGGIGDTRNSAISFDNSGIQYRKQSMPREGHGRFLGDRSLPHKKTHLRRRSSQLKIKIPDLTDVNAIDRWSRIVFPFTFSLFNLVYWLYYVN
T3 sequence (P18507 40-475): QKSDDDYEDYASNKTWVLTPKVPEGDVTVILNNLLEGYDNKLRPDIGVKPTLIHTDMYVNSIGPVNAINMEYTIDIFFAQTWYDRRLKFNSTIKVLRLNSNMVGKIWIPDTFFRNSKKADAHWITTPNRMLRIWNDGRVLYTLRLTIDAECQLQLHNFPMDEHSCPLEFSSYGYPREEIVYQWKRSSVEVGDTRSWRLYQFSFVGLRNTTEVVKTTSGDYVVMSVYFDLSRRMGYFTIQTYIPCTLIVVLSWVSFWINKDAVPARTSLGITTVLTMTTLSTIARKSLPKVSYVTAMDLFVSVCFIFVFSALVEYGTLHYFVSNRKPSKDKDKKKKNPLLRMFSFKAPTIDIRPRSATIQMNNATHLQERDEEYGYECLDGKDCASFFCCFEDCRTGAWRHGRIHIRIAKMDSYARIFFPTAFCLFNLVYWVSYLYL
T4 sequence (P34903 29-492): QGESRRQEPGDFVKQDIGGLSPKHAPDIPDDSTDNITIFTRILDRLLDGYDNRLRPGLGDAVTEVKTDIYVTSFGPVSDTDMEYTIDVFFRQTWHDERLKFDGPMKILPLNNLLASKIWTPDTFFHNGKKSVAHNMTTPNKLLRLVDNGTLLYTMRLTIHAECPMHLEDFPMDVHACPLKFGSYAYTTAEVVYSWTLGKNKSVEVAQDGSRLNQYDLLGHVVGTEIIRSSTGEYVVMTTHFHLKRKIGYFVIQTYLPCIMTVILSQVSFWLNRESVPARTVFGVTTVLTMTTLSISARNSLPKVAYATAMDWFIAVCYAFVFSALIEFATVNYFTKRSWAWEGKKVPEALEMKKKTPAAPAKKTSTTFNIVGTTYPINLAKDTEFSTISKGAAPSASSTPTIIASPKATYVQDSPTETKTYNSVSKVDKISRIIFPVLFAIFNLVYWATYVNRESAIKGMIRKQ
T4 sequence (P28472 26-473 partner): as the sequence (P28472 26-473 partner) above
T4 sequence (P18507 40-475): as the sequence (P18507 40-475) above
T1 sequence (P14867 28-456): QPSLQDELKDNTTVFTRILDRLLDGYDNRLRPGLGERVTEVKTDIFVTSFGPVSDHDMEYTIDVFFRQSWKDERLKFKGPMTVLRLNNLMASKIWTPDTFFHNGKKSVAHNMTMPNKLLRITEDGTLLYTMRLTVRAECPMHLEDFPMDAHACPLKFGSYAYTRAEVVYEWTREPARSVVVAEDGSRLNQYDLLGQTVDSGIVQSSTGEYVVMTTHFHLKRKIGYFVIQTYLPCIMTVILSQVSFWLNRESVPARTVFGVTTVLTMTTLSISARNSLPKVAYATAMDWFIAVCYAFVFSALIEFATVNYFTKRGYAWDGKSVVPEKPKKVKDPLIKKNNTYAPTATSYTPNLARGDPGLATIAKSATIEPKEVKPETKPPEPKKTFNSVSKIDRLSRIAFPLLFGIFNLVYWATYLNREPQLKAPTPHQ
T1 sequence (P28472 26-473 partner): as the sequence (P28472 26-473 partner) above
T1 sequence (P18507 40-475): as the sequence (P18507 40-475) above
T2 sequence (P31644 32-462): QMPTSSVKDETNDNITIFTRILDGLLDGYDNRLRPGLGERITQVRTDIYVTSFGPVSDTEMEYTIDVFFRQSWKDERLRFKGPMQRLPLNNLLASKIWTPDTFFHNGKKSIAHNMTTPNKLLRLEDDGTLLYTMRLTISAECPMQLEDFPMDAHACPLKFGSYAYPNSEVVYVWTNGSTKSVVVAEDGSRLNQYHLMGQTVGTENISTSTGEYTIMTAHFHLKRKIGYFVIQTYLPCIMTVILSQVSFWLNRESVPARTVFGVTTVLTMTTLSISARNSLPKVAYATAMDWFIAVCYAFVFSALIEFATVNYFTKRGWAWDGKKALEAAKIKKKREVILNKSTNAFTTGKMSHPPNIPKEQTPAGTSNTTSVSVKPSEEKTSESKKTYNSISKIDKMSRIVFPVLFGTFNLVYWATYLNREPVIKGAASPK
T2 sequence (P28472 26-473 partner): as the sequence (P28472 26-473 partner) above
T2 sequence (P18507 40-475): as the sequence (P18507 40-475) above

SMILES: CN1C(=O)CN=C(c2ccccc2)c2cc(Cl)ccc21 [Diazepam, diazepam]
- ED50, non-suppressed responding (rhesus monkeys [1]): 1.65 mg/kg
- ED50, suppressed responding (rhesus monkeys [1]): 0.11 mg/kg

SMILES: CN1CCN(C(=O)O[C@H]2c3nccnc3C(=O)N2c2ccc(Cl)cn2)CC1 [Eszopiclone, (+)-(5S)-6-(chloropyridin-2-yl)-7-oxo-6,7-dihydro-5H-pyrrolo[3,4-b]pyrazin-5-yl 4-methyl-piperazine-1-carboxylate]
- ED50 (rhesus monkeys [2]; read-out: ED50, non-suppressed responding): 0.74 mg/kg
- ED50 (rhesus monkeys [2]; read-out: ED50, suppressed responding): 0.07 mg/kg
- Estimated anxiolytic dose / expected human oral dose (rhesus monkeys [2]; human, regression of Rowlett et al. (2006), listed as (S)-zopiclone): 0.9 mg
- Estimated anxiolytic dose / expected human oral dose (rhesus monkeys [2]; human, regression of Rowlett et al. (2006), listed as eszopiclone): Estimated anxiolytic dose for eszopiclone = 0.9 mg
- Estimated sedative dose (rhesus monkeys [2]; human, regression of Rowlett et al. (2006), maximum recommended dose of diazepam 10 mg): Estimated sedative dose for eszopiclone = 3.4 mg
- Y = 0.583x − 0.175, Y (eszopiclone relative potency), non-suppressed responding (rhesus monkeys [2]; [9]): −0.47
- Y = 0.672x − 0.174, Y (eszopiclone relative potency), suppressed responding (rhesus monkeys [2]; [9]): −0.34
- 10^Y, non-suppressed responding (rhesus monkeys [2]; [10]): 0.34
- 10^Y, suppressed responding (rhesus monkeys [2]; [10]): 0.46
- Ratio (eszopiclone ED50 / diazepam ED50), non-suppressed responding (rhesus monkeys [2]; [11]): 0.31
- Ratio (eszopiclone ED50 / diazepam ED50), suppressed responding (rhesus monkeys [2]; [11]): 0.64
- Log10(Ratio), non-suppressed responding (rhesus monkeys [2]; rhesus monkey, in vivo): −0.51
- Log10(Ratio), suppressed responding (rhesus monkeys [2]; rhesus monkey, in vivo): −0.19
- ED5 to increase rates of suppressed responding (mean) (rhesus monkeys [2]; x = 5 % maximum increase, N = 4 monkeys): 0.029 mg/kg, i.v.
- ED10 to increase rates of suppressed responding (mean) (rhesus monkeys [2]; x = 10 % maximum increase, N = 4 monkeys): 0.032 mg/kg, i.v.
- ED15 to increase rates of suppressed responding (mean) (rhesus monkeys [2]; x = 15 % maximum increase, N = 4 monkeys): 0.036 mg/kg, i.v.
- ED20 to increase rates of suppressed responding (mean) (rhesus monkeys [2]; x = 20 % maximum increase, N = 4 monkeys): 0.040 mg/kg, i.v.
- ED25 to increase rates of suppressed responding (mean) (rhesus monkeys [2]; x = 25 % maximum increase, N = 4 monkeys): 0.044 mg/kg, i.v.
- ED30 to increase rates of suppressed responding (mean) (rhesus monkeys [2]; x = 30 % maximum increase, N = 4 monkeys): 0.048 mg/kg, i.v.
- ED35 to increase rates of suppressed responding (mean) (rhesus monkeys [2]; x = 35 % maximum increase, N = 4 monkeys): 0.054 mg/kg, i.v.
- ED40 to increase rates of suppressed responding (mean) (rhesus monkeys [2]; x = 40 % maximum increase, N = 4 monkeys): 0.059 mg/kg, i.v.
- ED45 to increase rates of suppressed responding (mean) (rhesus monkeys [2]; x = 45 % maximum increase, N = 4 monkeys): 0.066 mg/kg, i.v.
- ED50 to increase rates of suppressed responding (mean) (rhesus monkeys [2]; x = 50 % maximum increase, N = 4 monkeys): 0.073 mg/kg, i.v.
- ED55 to increase rates of suppressed responding (mean) (rhesus monkeys [2]; x = 55 % maximum increase, N = 4 monkeys): 0.081 mg/kg, i.v.
- ED60 to increase rates of suppressed responding (mean) (rhesus monkeys [2]; x = 60 % maximum increase, N = 4 monkeys): 0.090 mg/kg, i.v.
- ED65 to increase rates of suppressed responding (mean) (rhesus monkeys [2]; x = 65 % maximum increase, N = 4 monkeys): 0.100 mg/kg, i.v.
- ED70 to increase rates of suppressed responding (mean) (rhesus monkeys [2]; x = 70 % maximum increase, N = 4 monkeys): 0.110 mg/kg, i.v.
- ED75 to increase rates of suppressed responding (mean) (rhesus monkeys [2]; x = 75 % maximum increase, N = 4 monkeys): 0.123 mg/kg, i.v.
- ED80 to increase rates of suppressed responding (mean) (rhesus monkeys [2]; x = 80 % maximum increase, N = 4 monkeys): 0.136 mg/kg, i.v.
- ED85 to increase rates of suppressed responding (mean) (rhesus monkeys [2]; x = 85 % maximum increase, N = 4 monkeys): 0.151 mg/kg, i.v.
- ED90 to increase rates of suppressed responding (mean) (rhesus monkeys [2]; x = 90 % maximum increase, N = 4 monkeys): 0.168 mg/kg, i.v.
- ED95 to increase rates of suppressed responding (mean) (rhesus monkeys [2]; x = 95 % maximum increase, N = 4 monkeys): 0.186 mg/kg, i.v.
- EC50 [3]: 30 nM
- EC50 [4]: 40 nM
- EC50 [5]: 100 nM
- EC50 [6]: 250 nM
- Alpha EEG activity (arousal), change from placebo ([7]; doses below 2.0 mg): did not exhibit major effects on arousal
- Alpha EEG activity (arousal), change from placebo ([7]; highest dose (2.0 mg)): induces a significant impairment in the subject's arousal and possibly a sedative effect
- Delta EEG activity (sedative effect), change from placebo ([7]; highest dose (2.0 mg)): induces a significant sedative effect
- Delta EEG activity (sedative effect), change from placebo ([7]; other doses (0.3, 0.6, 0.9 mg)): do not have this side effect
- time of maximum mean (S)-zopiclone plasma concentrations ([8]; fasted conditions): 0.5 to 1.5 h
- time of maximum mean (S)-zopiclone plasma concentrations ([8]; fed conditions): 2 to 3 h
